Measured values from US20080220103A1, “METHOD FOR TREATING/CONTROLLING/KILLING FUNGI AND BACTERIA ON LIVING ANIMALS” (priority 2005, published 2008).
In brackets after ≈: the same amount, converted by molar mass. One block for each compound: values may come before it.

Columns and labels:
[1] = tested on: All Yeasts; assay: Minimum fungicidal concentration, yeasts; format: cell-based
Protocol: Minimum fungicidal concentration (MFC): The minimum fungicidal concentrations of various agents were determined using the technique described by Canton et al. (Antimicrob Agents Chemother. 2004 8:2477-82). In that method, fungal conidia were collected following growth on potato dextrose agar (PDA) plates and were used to inoculate 96-well plates containing different concentrations of agents. Following incubation at 35° C. for 4 days (for dermatophytes) or 24 hours (for yeast), wells showing no visible growth were cultured to determine the MFC (defined as the lowest concentration of a given agent that kills>99.999% of fungal conidia or spores). The MFC value represents the level of the agent at which spores or conidia were killed.

[2] = tested on: terbinafine-resistant T. rubrum; assay: MIC against terbinafine-resistant isolates; format: cell-based, Trichophyton rubrum
Protocol: Minimum Inhibitory Concentration (MIC): Minimum inhibitory concentrations of synthetic and semisynthetic and natural products against dermatophytes were determined using a modification of the Clinical Laboratory Standards Institute (CLSI, formerly National Committee of Clinical Laboratory Standards, NCCLS) M38A standard method for dermatophytes, while MIC of these agents against Candida species were determined using the CLSI M27-A2 methodology. The method used to determine the MIC against bacteria was based on the CLSI document M7-A7.
For dermatophytes, serial dilutions of terbinafine, tolnaftate were prepared in a range of 0.004-2 μg/ml, while for miconazole concentrations ranged between 0.015-8 μg/ml. Finally, for essential oils, the concentrations tested were between 0.03-16 μg/ml. The only exception was tea tree oil where dilutions were prepared in a range of 0.0078-4 μg/ml. The MIC was read at 4 days post inoculation and defined as the lowest concentration of an agent to inhibit 80% of fungal growth as compared to the growth control (Table 2).

[3] = tested on: T. rubrum; assay: Post-treatment insole assay, combination (FIG. 10); format: cell-based, Trichophyton rubrum; settings: 0.01% tolnaftate, 3% tea tree oil, singly or combined
[4] = Trichophyton rubrum, terbinafine-resistant T. rubrum, n = 11

Compound: Clc1ccc(COC(Cn2ccnc2)c2ccc(Cl)cc2Cl)c(Cl)c1 (stereo not shown) [Miconazole, miconazole]
- MFC Range [1]: 0.5 to 2 µg/mL

- MIC ([2]; Trichophyton rubrum, T. rubrum MRL 666): 16 µg/mL (≈ 54.9 µM)
- MIC ([2]; Trichophyton rubrum, T. rubrum MRL 670): 16 µg/mL (≈ 54.9 µM)
- MIC ([2]; Trichophyton rubrum, T. rubrum MRL 671): 4 µg/mL (≈ 13.7 µM)
- MIC ([2]; Trichophyton rubrum, T. rubrum MRL 1386): 4 µg/mL (≈ 13.7 µM)
- MIC ([2]; Trichophyton rubrum, T. rubrum MRL 1806): 4 µg/mL (≈ 13.7 µM)
- MIC ([2]; Trichophyton rubrum, T. rubrum MRL 1807): 4 µg/mL (≈ 13.7 µM)
- MIC ([2]; Trichophyton rubrum, T. rubrum MRL 1808): 16 µg/mL (≈ 54.9 µM)
- MIC ([2]; Trichophyton rubrum, T. rubrum MRL 1809): 16 µg/mL (≈ 54.9 µM)
- MIC ([2]; Trichophyton rubrum, T. rubrum MRL 1810): 4 µg/mL (≈ 13.7 µM)
- MIC ([2]; Trichophyton rubrum, T. rubrum MRL 2499): 4 µg/mL (≈ 13.7 µM)
- MIC ([2]; Trichophyton rubrum, T. rubrum MRL 2727): 2 µg/mL (≈ 6.86 µM)
- MIC50 [2, 4]: 4 µg/mL (≈ 13.7 µM)
- MIC90 [2, 4]: 16 µg/mL (≈ 54.9 µM)
- MIC Range ([2]; terbinafine-resistant T. rubrum, n = 11): 2 to 16 µg/mL
Compound: CN(C/C=C/C#CC(C)(C)C)Cc1cccc2ccccc12 [Terbinafine, terbinafine]

Compound: Cc1cccc(N(C)C(=S)Oc2ccc3ccccc3c2)c1 [Tolnaftate, tolnaftate]
- effect of post-contamination treatment of insoles on fungal growth [3]: did not prevent growth of fungus
